The target of one assay is T1, soybean 15-LOX (Glycine max, UniProt P08170).
T1 sequence (P08170 1-839): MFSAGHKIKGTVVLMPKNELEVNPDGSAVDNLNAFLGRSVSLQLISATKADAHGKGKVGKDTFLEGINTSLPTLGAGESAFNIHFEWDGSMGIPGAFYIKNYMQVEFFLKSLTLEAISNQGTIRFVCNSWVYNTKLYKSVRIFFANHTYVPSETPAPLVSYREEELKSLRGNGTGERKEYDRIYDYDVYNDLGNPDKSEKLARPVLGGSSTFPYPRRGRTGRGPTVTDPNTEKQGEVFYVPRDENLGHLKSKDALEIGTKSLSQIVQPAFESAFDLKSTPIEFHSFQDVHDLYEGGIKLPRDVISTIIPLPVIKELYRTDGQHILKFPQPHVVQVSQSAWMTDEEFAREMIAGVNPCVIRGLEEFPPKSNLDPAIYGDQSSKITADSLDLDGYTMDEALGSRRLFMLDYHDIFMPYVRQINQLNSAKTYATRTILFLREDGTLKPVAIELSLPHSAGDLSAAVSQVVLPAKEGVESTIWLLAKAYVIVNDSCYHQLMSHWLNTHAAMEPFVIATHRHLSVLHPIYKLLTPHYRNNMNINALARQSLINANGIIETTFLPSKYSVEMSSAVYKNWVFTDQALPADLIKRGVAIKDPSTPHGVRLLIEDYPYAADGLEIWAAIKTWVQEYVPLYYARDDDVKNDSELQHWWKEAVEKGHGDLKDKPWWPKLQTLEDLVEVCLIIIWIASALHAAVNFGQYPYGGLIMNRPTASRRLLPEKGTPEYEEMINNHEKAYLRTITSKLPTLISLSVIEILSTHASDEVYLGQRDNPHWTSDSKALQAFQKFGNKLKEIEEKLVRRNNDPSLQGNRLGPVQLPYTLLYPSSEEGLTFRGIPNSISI
The assay is described as follows: 15-LOX inhibitor screening assay (Cayman). Type of assay: biochemical. Particulars: mean ± SEM, n = 3 replicates.

For a further assay, the system named is MOLT-4. The assay is described as follows: NCI single dose screen, MOLT-4. It counts as cell-based. Particulars: Homo sapiens; MOLT-4, leukaemia; single dose 10^−5 M; read-out: growth inhibition percentage. The method, then: (§1) Screening of the anticancer activity of the newly synthesised compounds (6a, 6c, 6d, 6e, 6j, 6l, 6m, 6n, 6o, and 6p) was performed by the US National Cancer Institute (NCI) using 60 different human tumour cell lines in accordance with standard procedures formerly reported.
(§2) In vitro anticancer screening was carried out for the selected compounds at a single dose (10^−5 M) against 60 different human tumour cell lines of nine different cancer cell types: leukaemia, lung, colon, CNS, melanoma, ovarian, renal, prostate, and breast cancers.

Another assay concerns HOP-92. In words: NCI single dose screen, HOP-92. It counts as cell-based. Particulars: Homo sapiens; HOP-92, non-small cell lung cancer; single dose 10^−5 M; read-out: growth inhibition percentage. The method, then: as §1, §2
A further assay deals with COLO 205. The assay is described as follows: NCI single dose screen, COLO 205. The following applies: Homo sapiens; COLO 205, colon cancer; single dose 10^−5 M; read-out: growth inhibition percentage. Type of assay: cell-based. The method, then: as §1, §2
For the next assay, the system named is KM12. In words: NCI single dose screen, KM12. It counts as cell-based. Particulars: Homo sapiens; KM12, colon cancer; single dose 10^−5 M; read-out: growth inhibition percentage. The method, then:
as §1, §2

For a further assay, the system named is SW-620. In words: NCI single dose screen, SW-620. It counts as cell-based. The following applies: Homo sapiens; SW-620, colon cancer; single dose 10^−5 M; read-out: growth inhibition percentage. The method, then:
as §1, §2

The subject of another assay is SF-295. The assay is described as follows: NCI single dose screen, SF-295. It counts as cell-based. The following applies: Homo sapiens; SF-295, CNS cancer; single dose 10^−5 M; read-out: growth inhibition percentage. The method, then:
as §1, §2

A further assay has as its system SK-OV-3. In words: NCI single dose screen, SK-OV-3. It counts as cell-based. The following applies: Homo sapiens; SK-OV-3, ovarian cancer; single dose 10^−5 M; read-out: growth inhibition percentage. The method, then: as §1, §2
In the next assay the test system is ACHN. The assay is described as follows: NCI single dose screen, ACHN. It counts as cell-based. The following applies: Homo sapiens, renal cancer, single dose 10^−5 M, read-out: growth inhibition percentage. The method, then: as §1, §2
For another assay, the system named is SN12C. The assay is described as follows: NCI single dose screen, SN12C. Type of assay: cell-based. Particulars: Homo sapiens, renal cancer, single dose 10^−5 M, read-out: growth inhibition percentage. The method, then: as §1, §2
In another assay the test system is UO-31. The assay is described as follows: NCI single dose screen, UO-31. Particulars: Homo sapiens; UO-31, renal cancer; single dose 10^−5 M; read-out: growth inhibition percentage. Type of assay: cell-based. The method, then:
as §1, §2

As usually defined, the IC50 is the concentration at which inhibition is half-maximal. Read a high IC50 as a need for much substance. The term inhibition denotes the share of the control response that was lost under treatment. `COc1ccc(C2N(NC(=O)Nc3ccc(F)cc3)C(=O)c3ccccc3N2C)cc1` (stereo not shown) [Compound 6p, 1-(4-Fluorophenyl)-3-(2–(4-methoxyphenyl)-1-methyl-4-oxo-1,4-dihydroquinazolin-3(2H)-yl)urea] returned an IC50 against soybean 15-LOX of 3870 ± 2100 nM. Further, the inhibition at 10 µM in the assay with MOLT-4 was 11.2%; with HOP-92, under 10%; in the assay with COLO 205, under 10%; with KM12 it was under 10%; with SW-620, under 10%; in the assay on SF-295 it was under 10%. For the same molecule, the inhibition at 10 µM with SK-OV-3 is under 10%; in the assay on ACHN, under 10%; with SN12C, under 10%; with UO-31, 42.6%.

In the case of `CN1c2ccccc2C(=O)N(NC(=O)Nc2ccccc2)C1c1ccc([N+](=O)[O-])cc1` (stereo not shown) [Compound 6e, 1-(1-Methyl-2-(4-nitrophenyl)-4-oxo-1,4-dihydroquinazolin-3(2H)-yl)-3-phenylurea], the IC50 at soybean 15-LOX worked out at 1760 ± 270 nM. The inhibition at 10 µM in the assay on MOLT-4, in the assay with HOP-92, in the assay on COLO 205, in the assay on KM12, with SW-620 and in the assay with SF-295 was under 10% each time. For the same molecule, the inhibition at 10 µM in the assay with SK-OV-3 is under 10%; in the assay with ACHN, under 10%; with SN12C, under 10%; in the assay with UO-31, 14.4%.

`CN1c2ccccc2C(=O)N(NC(=O)Nc2ccccc2)C1c1ccc(F)cc1` (stereo not shown) [Compound 6d, 1-(2-(4-Fluorophenyl)-1-methyl-4-oxo-1,4-dihydroquinazolin-3(2H)-yl)-3-phenylurea] gave a 50% inhibitory concentration (IC50) at soybean 15-LOX of 1960 ± 230 nM. The inhibition at 10 µM with MOLT-4 was 11.1%; with HOP-92 it was under 10%; in the assay with COLO 205, under 10%; in the assay with KM12, under 10%; in the assay on SW-620 it was under 10%; with SF-295, under 10%. The inhibition at 10 µM in the assay with SK-OV-3 was under 10%; in the assay on ACHN it was under 10%; with SN12C, under 10%; in the assay on UO-31, 36.2%.

The molecule `COc1ccc(NC(=O)NN2C(=O)c3ccccc3N(C)C2c2ccc(OC)cc2)cc1` (stereo not shown) [Compound 6j, 1-(4-Methoxyphenyl)-3-(2-(4-methoxyphenyl)-1-methyl-4-oxo-1,4-dihydroquinazolin-3(2H)-yl)urea] had an IC50 at soybean 15-LOX of 1950 ± 350 nM. Besides, the inhibition at 10 µM in the assay with MOLT-4, with HOP-92, in the assay on COLO 205, in the assay with KM12, in the assay on SW-620 and in the assay with SF-295 was under 10% in each case. The inhibition at 10 µM was under 10% in the assay on SK-OV-3, under 10% in the assay on ACHN, under 10% in the assay on SN12C and 24.6% in the assay on UO-31.

`CN1c2ccccc2C(=O)N(NC(=O)Nc2ccccc2)C1c1ccccc1` (stereo not shown) [Compound 6c, 1-(1-Methyl-4-oxo-2-phenyl-1,4-dihydroquinazolin-3(2H)-yl)-3-phenylurea]: on soybean 15-LOX, the half-maximal inhibitory concentration (IC50) came out at 1360 ± 190 nM. Further, the inhibition at 10 µM with MOLT-4, in the assay on HOP-92, in the assay with COLO 205, with KM12, in the assay with SW-620 and in the assay with SF-295 was under 10% in each case. The inhibition at 10 µM in the assay with SK-OV-3 was under 10%; in the assay on ACHN it was under 10%; with SN12C, under 10%; in the assay on UO-31, 19.5%.

Values taken from article PMC10114980, “Triple targeting of mutant EGFR^L858R/T790M, COX-2, and 15-LOX: design and synthesis of novel quinazolinone tethered phenyl urea derivatives for anti-inflammatory and anticancer evaluation” (Journal of Enzyme Inhibition and Medicinal Chemistry, 2023).
